Measurements as given in PubChem BioAssay (NCI).
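Dose response: 5 concentrations. Exposure: 48 h. Format: 96-well plates. Endpoint: linear interpolation; highest concentration if not reached. GI50 = concentration required for 50% inhibition of growth. Definition used: TGI = concentration required for complete inhibition of growth.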

Tests used:
Test in all cases: DTP human tumour cell line panel, 48 h
SR leukemia = test system: SR leukemia
HCT-116 colon = test system: HCT-116 colon
K-562 leukemia = test system: K-562 leukemia
SK-MEL-28 melanoma = test system: SK-MEL-28 melanoma
RPMI-8226 leukemia = test system: RPMI-8226 leukemia
COLO 205 colon = test system: COLO 205 colon
SN12C renal = test system: SN12C renal
EKVX NSCLC = test system: EKVX NSCLC
UACC-257 melanoma = test system: UACC-257 melanoma
SNB-19 CNS = test system: SNB-19 CNS
HOP-92 NSCLC = test system: HOP-92 NSCLC
HCT-15 colon = test system: HCT-15 colon
CCRF-CEM leukemia = test system: CCRF-CEM leukemia
HT29 colon = test system: HT29 colon
OVCAR-5 ovarian = test system: OVCAR-5 ovarian
OVCAR-8 ovarian = test system: OVCAR-8 ovarian
HS 578T breast = test system: HS 578T breast
DU-145 prostate = test system: DU-145 prostate
ACHN renal = test system: ACHN renal
UO-31 renal = test system: UO-31 renal
NCI/ADR-RES ovarian = test system: NCI/ADR-RES ovarian
SF-295 CNS = test system: SF-295 CNS
CAKI-1 renal = test system: CAKI-1 renal
OVCAR-4 ovarian = test system: OVCAR-4 ovarian
M14 melanoma = test system: M14 melanoma
KM12 colon = test system: KM12 colon
HCC-2998 colon = test system: HCC-2998 colon
SK-OV-3 ovarian = test system: SK-OV-3 ovarian
NCI-H226 lung = test system: NCI-H226 lung
NCI-H522 lung = test system: NCI-H522 lung
TK-10 renal = test system: TK-10 renal
IGROV1 ovarian = test system: IGROV1 ovarian
HL-60(TB) leukemia = test system: HL-60(TB) leukemia
SK-MEL-2 melanoma = test system: SK-MEL-2 melanoma
T-47D breast = test system: T-47D breast
MCF7 breast = test system: MCF7 breast
UACC-62 melanoma = test system: UACC-62 melanoma
A498 renal = test system: A498 renal
SNB-75 CNS = test system: SNB-75 CNS
MALME-3M melanoma = test system: MALME-3M melanoma
RXF 393 renal = test system: RXF 393 renal
MDA-MB-468 breast = test system: MDA-MB-468 breast
PC-3 prostate = test system: PC-3 prostate
MOLT-4 leukemia = test system: MOLT-4 leukemia
786-0 renal = test system: 786-0 renal
OVCAR-3 ovarian = test system: OVCAR-3 ovarian
NCI-H23 lung = test system: NCI-H23 lung
SF-539 CNS = test system: SF-539 CNS
MDA-MB-231 breast = test system: MDA-MB-231 breast
BT-549 breast = test system: BT-549 breast
MDA-MB-435 = test system: MDA-MB-435
NCI-H460 lung = test system: NCI-H460 lung
HOP-62 NSCLC = test system: HOP-62 NSCLC
LOX IMVI melanoma = test system: LOX IMVI melanoma
SW-620 colon = test system: SW-620 colon
SF-268 CNS = test system: SF-268 CNS

SMILES: COc1cc2cc(C(=O)N3C[C@@H](CCl)c4c3cc(OC(=O)N(C)CCSSCCN3CCOCC3)c3ccccc43)[nH]c2c(OC)c1OC
- GI50 (SR leukemia): 19.7 nM
- TGI (SR leukemia): > 25000 nM
- GI50 (HCT-116 colon): 612 nM
- TGI (HCT-116 colon): > 25000 nM
- GI50 (K-562 leukemia): 608 nM
- TGI (K-562 leukemia): > 25000 nM
- GI50 (SK-MEL-28 melanoma): 128 nM
- TGI (SK-MEL-28 melanoma): 293 nM
- GI50 (RPMI-8226 leukemia): 1000 nM
- TGI (RPMI-8226 leukemia): > 25000 nM
- GI50 (COLO 205 colon): 1150 nM
- TGI (COLO 205 colon): 2680 nM
- GI50 (SN12C renal): 69 nM
- TGI (SN12C renal): 1920 nM
- GI50 (EKVX NSCLC): 178 nM
- TGI (EKVX NSCLC): 844 nM
- GI50 (UACC-257 melanoma): 642 nM
- TGI (UACC-257 melanoma): 4320 nM
- GI50 (SNB-19 CNS): 95 nM
- TGI (SNB-19 CNS): 2550 nM
- GI50 (HOP-92 NSCLC): 1130 nM
- TGI (HOP-92 NSCLC): > 18600 nM
- GI50 (HCT-15 colon): 335 nM
- TGI (HCT-15 colon): 2990 nM
- GI50 (CCRF-CEM leukemia): 281 nM
- TGI (CCRF-CEM leukemia): > 25000 nM
- GI50 (HT29 colon): 496 nM
- TGI (HT29 colon): > 8760 nM
- GI50 (OVCAR-5 ovarian): 228 nM
- TGI (OVCAR-5 ovarian): 1060 nM
- GI50 (OVCAR-8 ovarian): 125 nM
- TGI (OVCAR-8 ovarian): 1520 nM
- GI50 (HS 578T breast): 627 nM
- TGI (HS 578T breast): 1970 nM
- GI50 (DU-145 prostate): 34.1 nM
- TGI (DU-145 prostate): > 25000 nM
- GI50 (ACHN renal): 19.3 nM
- TGI (ACHN renal): 554 nM
- GI50 (UO-31 renal): 69.2 nM
- TGI (UO-31 renal): 452 nM
- GI50 (NCI/ADR-RES ovarian): 362 nM
- TGI (NCI/ADR-RES ovarian): 1290 nM
- GI50 (SF-295 CNS): 87.2 nM
- TGI (SF-295 CNS): 1470 nM
- GI50 (CAKI-1 renal): 137 nM
- TGI (CAKI-1 renal): 5730 nM
- GI50 (OVCAR-4 ovarian): 621 nM
- TGI (OVCAR-4 ovarian): 1830 nM
- GI50 (M14 melanoma): 69.9 nM
- TGI (M14 melanoma): 318 nM
- GI50 (KM12 colon): 286 nM
- TGI (KM12 colon): > 8850 nM
- GI50 (HCC-2998 colon): 154 nM
- TGI (HCC-2998 colon): 575 nM
- GI50 (SK-OV-3 ovarian): 107 nM
- TGI (SK-OV-3 ovarian): 925 nM
- GI50 (NCI-H226 lung): 29.5 nM
- TGI (NCI-H226 lung): 122 nM
- GI50 (NCI-H522 lung): 1330 nM
- TGI (NCI-H522 lung): 7370 nM
- GI50 (TK-10 renal): 819 nM
- TGI (TK-10 renal): 3120 nM
- GI50 (IGROV1 ovarian): 358 nM
- TGI (IGROV1 ovarian): 1460 nM
- GI50 (HL-60(TB) leukemia): 251 nM
- TGI (HL-60(TB) leukemia): 4950 nM
- GI50 (SK-MEL-2 melanoma): 210 nM
- TGI (SK-MEL-2 melanoma): 463 nM
- GI50 (T-47D breast): 1010 nM
- TGI (T-47D breast): 5720 nM
- GI50 (MCF7 breast): 45.7 nM
- TGI (MCF7 breast): 2240 nM
- GI50 (UACC-62 melanoma): 130 nM
- TGI (UACC-62 melanoma): 482 nM
- GI50 (A498 renal): 272 nM
- TGI (A498 renal): 1330 nM
- GI50 (SNB-75 CNS): 348 nM
- TGI (SNB-75 CNS): 921 nM
- GI50 (MALME-3M melanoma): 229 nM
- TGI (MALME-3M melanoma): 673 nM
- GI50 (RXF 393 renal): 28 nM
- TGI (RXF 393 renal): 95.1 nM
- GI50 (MDA-MB-468 breast): 133 nM
- TGI (MDA-MB-468 breast): 505 nM
- GI50 (PC-3 prostate): 214 nM
- TGI (PC-3 prostate): > 25000 nM
- GI50 (MOLT-4 leukemia): 51.9 nM
- TGI (MOLT-4 leukemia): > 25000 nM
- GI50 (786-0 renal): 196 nM
- TGI (786-0 renal): 1050 nM
- GI50 (OVCAR-3 ovarian): 575 nM
- TGI (OVCAR-3 ovarian): 1630 nM
- GI50 (NCI-H23 lung): 33.3 nM
- TGI (NCI-H23 lung): 164 nM
- GI50 (SF-539 CNS): 25.7 nM
- TGI (SF-539 CNS): 116 nM
- GI50 (MDA-MB-231 breast): 270 nM
- TGI (MDA-MB-231 breast): 1180 nM
- GI50 (BT-549 breast): 66.5 nM
- TGI (BT-549 breast): 330 nM
- GI50 (MDA-MB-435): 141 nM
- TGI (MDA-MB-435): 361 nM
- GI50 (NCI-H460 lung): 26.3 nM
- TGI (NCI-H460 lung): > 9660 nM
- GI50 (HOP-62 NSCLC): 29.4 nM
- TGI (HOP-62 NSCLC): 511 nM
- GI50 (LOX IMVI melanoma): 41.7 nM
- TGI (LOX IMVI melanoma): 334 nM
- GI50 (SW-620 colon): 865 nM
- TGI (SW-620 colon): > 25000 nM
- GI50 (SF-268 CNS): 45.4 nM
- TGI (SF-268 CNS): > 25000 nM
